Source: US20250009819A1, “NOVEL PROBIOTICS AND USE THEREOF” (PBLBIOLAB CO., LTD., priority 2021, published 2025)

Columns and labels:
Assay type in all cases: in vivo, C57BL/6 male mice
[1] = tested on: animals with LPS-induced cognitive impairment; test: Animals with LPS-induced cognitive impairment: colitis improvement (colon); conditions: LPS-treated mice, 1×10^9 CFU/mouse or sulfasalazine 50 mg/kg once a day for 5 days
Method: To 100 mg of colon tissue, 200 μl of 10 mM potassium phosphate buffer (pH 7.0) containing 0.5% hexadecyl trimethyl ammonium bromide was added and homogenized. Then, the supernatant was obtained by centrifugation for 10 minutes at 4° C. and 10,000 g. A volume of 50 μl of the supernatant was added to 0.95 mk of reaction solution (containing 1.6 mM tetramethyl benzidine and 0.1 mM H2O2), reacted at 37° C., and absorbance was monitored over time at 650 nm.
(§1) Hippocampus, colon, and spleen tissues were homogenized by adding 1 ml of RIPA buffer (Gibco) containing protease inhibitor cocktail and centrifuged at 4° C., 13000 rpm for 15 min to obtain supernatant. Indicators of this supernatant were measured using an ELISA kit (Ebioscience).
(§2) C57BL/6 male mice (5 weeks old, 19-21 g) were divided (6 mice in each group) and acclimatized to the laboratory for 1 week. To induce intestinal and brain diseases, mice were intraperitoneally administered Escherichia coli-derived LPS (10 μg/kg) once daily for 5 days. […] Experimental animals in the normal group were orally administered with a physiological saline solution, which was used to suspend lactic acid bacteria. The day following the conclusion of sample administration, the experimental animals were sacrificed, and samples from the brain hippocampus, colon, and spleen were collected. In the Hippocampus, inflammatory indicators, such as IFN-γ, TNF-α, and IL-10, were measured using ELISA. In the colon, intestinal length and inflammatory indicators, such as IFN-γ, TNF-α, and IL-10, were measured. In the spleen, Th1 cells and Treg cells were measured by FACS (Fluorescence-Activated Cell Sorting).

[2] = tested on: animals with LPS-induced cognitive impairment; test: Animals with LPS-induced cognitive impairment: cognitive improvement, hippocampus indicators; conditions: LPS-treated mice, 1×10^9 CFU/mouse or sulfasalazine 50 mg/kg once a day for 5 days
Method: as §1
(§3) The Y-shaped maze measurement device is shaped like an alphabetical Y with three arms extending from it, each arm being 25 cm long, 14 cm high, 5 cm wide, and positioned at the same angle. At the end of one arm of the Y-shaped maze, the animal was placed with its head facing out and allowed to freely navigate the arm for 8 minutes. The animal's movements were recorded, and reported as arm entries when the animal entered the arm with its hind paw, and the animal's movement was represented by an alternation, which was defined as one alternation when the animal passed through the three arms in succession. The amount of spontaneous alternation behavior was expressed as a percentage between the actual number of alternations and the maximum possible number of alternations (i.e., the total number of […] minus 2).
(§4) The experiment was conducted in a box (40×40×40 cm) made so that the outside could not be seen from the inside. Two objects (A, A′) of the same shape and size were fixedly disposed in a box and the mouse was relocated to start from the center of the box. Then, the number of times the mouse made contact with the two objects was recorded for 10 minutes. After 24 hours, one of the two objects was replaced with a new object (A, B). Then, one original object and one new object were prepared, and the animal's exploration time was measured.
as §2

[3] = tested on: immunosuppressed animals induced by anticancer drug (cyclophosphamide); test: Immunosuppressed animals induced by cyclophosphamide: improvement effect in spleen; conditions: cyclophosphamide (CP)-treated mice, 1×10^9 CFU/mouse orally once a day for 5 days; for Foxp3 (fold change) / Tbet (fold change) / Tbet/Foxp3: spleen qPCR; for IFN-γ/IL-10 / IL-10 / Interferon (IFN)-γ / NK cell cytoxicity (%) / Phagocytosis (%) / TNF-a/IL-10 / TNF-α: spleen
Method: as §1
mRNA was isolated from spleen tissue using the RNA Isolation Kit: RNeasy Mini Kit (QIAGEN), converted to cDNA, and qPCR was performed to measure the expression rates of Tbet, Foxp3, and glyceraldehyde 3-phosphate dehydrogenase (GAPDH). The reaction product was first treated at 95° C. for 30 seconds, followed by 38 cycles of 5 seconds at 95° C. and 30 seconds at 72° C. for analysis.
C57BL/6 male mice (5 weeks old, 19-21 g) were divided (6 mice in each group) and acclimatized to the laboratory for 1 week. To induce intestinal and brain diseases, the mice were administered with cyclophosphamide (CP, 150 mg/kg, dissolved in physiological saline) for 1 day, rested for 1 day, and then administered intraperitoneally the next day. Meanwhile, the normal group was administered intraperitoneally with 0.1 ml of physiological saline. […] The day following the conclusion of sample administration, the experimental animals were sacrificed, and samples from the brain hippocampus, colon, and spleen were collected. In the Hippocampus, inflammatory indicators, such as IFN-γ, TNF-α, and IL-10, were measured using ELISA. In the colon, intestinal length and inflammatory indicators, such as IFN-γ, TNF-α, and IL-10, were measured. In the spleen, Th1 cells and Treg cells were measured by FACS (Fluorescence-Activated Cell Sorting).

[4] = tested on: animals with antibiotic-induced gut microbiota imbalance; test: Animals with antibiotic (ampicillin)-induced gut microbiota imbalance: cognitive improvement, hippocampus indicators; conditions: ampicillin (AP)-treated mice, 1×10^9 CFU/mouse orally once a day for 5 days; for IFN-γ/IL-10 / IL-10 / Interferon (IFN)-γ / TNF-a/IL-10 / TNF-α: hippocampus
Method: as §1, §3, §4
C57BL/6 male mice (5 weeks old, 19-21 g) were divided (6 mice in each group) and acclimatized to the laboratory for 1 week. To induce intestinal and brain diseases, the mice were orally administered with ampicillin (AP, 100 mg/kg, dissolved in physiological saline) for 3 days. Meanwhile, the normal group was orally administered with 0.1 ml of physiological saline. […] The day following the conclusion of sample administration, the experimental animals were sacrificed, and samples from the brain hippocampus, colon, and spleen were collected. In the Hippocampus, inflammatory indicators, such as IFN-γ, TNF-α, and IL-10, were measured using ELISA. In the colon, intestinal length and inflammatory indicators, such as IFN-γ, TNF-α, and IL-10, were measured. In the spleen, Th1 cells and Treg cells were measured by FACS (Fluorescence-Activated Cell Sorting), and in feces, endotoxin (LPS) and gut microbial communities were measured.

Row | Substance | Colon (cm) [1] [cm] | IFN-γ/IL-10 [1] | IL-10 [1] [pg/mg] | Interferon (IFN)-γ [1] [pg/mg] | MPO activity [1] [μUnit/mg] | TNF-α [1] [pg/mg] | TNF-α/IL-10 [1] | Exoporation (%) (in NOR task) [2] | Spontaneous alteration (%) (in Y-maze task) [2] | IFN-γ/IL-10 ([2]; hippocampus) | IL-10 ([2]; hippocampus) [pg/mg] | Interferon (IFN)-γ ([2]; hippocampus) [pg/mg] | TNF-α/IL-10 ([2]; hippocampus) | Foxp3 (fold change) [3] [fold change] | Tbet (fold change) [3] [fold change] | Tbet/Foxp3 [3] | IFN-γ/IL-10 [3] | IL-10 [3] [pg/mg] | Interferon (IFN)-γ [3] [pg/mg] | NK cell cytoxicity (%) [3] [%] | also measured
1 | Bifidobacterium longum NK219 | 4.8 | 2.35 | 19.56 | 44.72 | 4.30 | 18.59 | 0.96 | 76.97 | 71.06 | 0.50 | 47.71 | 24.09 | 0.24 | 0.36 | 0.95 | 2.49 | 2.11 | 2.90 | 5.56 | 8.90 | TNF-α ([2]; hippocampus): 10.72 pg/mg; Phagocytosis (%) [3]: 50.36%; TNF-a/IL-10 [3]: 0.87; TNF-α [3]: 2.45 pg/mg; Exoporation (%) (in NOR task) [4]: 83.21%; Spontaneous alteration (%) (in Y-maze task) [4]: 70.54%; IFN-γ/IL-10 [4]: 0.48; IL-10 [4]: 50.29 pg/mg; Interferon (IFN)-γ [4]: 24.33 pg/mg; TNF-a/IL-10 [4]: 0.28; TNF-α [4]: 12.43 pg/mg
2 | Lactobacillus rhamnosus NK210 | 5.0 | 2.50 | 21.10 | 44.24 | 4.55 | 20.76 | 0.98 | 76.00 | 69.36 | 0.52 | 46.94 | 23.04 | 0.23 | 0.37 | 0.75 | 2.05 | 2.31 | 3.31 | 7.39 | 8.26 | Phagocytosis (%) [3]: 58.65%; TNF-a/IL-10 [3]: 1.04; TNF-α [3]: 3.20 pg/mg; Exoporation (%) (in NOR task) [4]: 76.25%; Spontaneous alteration (%) (in Y-maze task) [4]: 73.01%; IFN-γ/IL-10 [4]: 0.47; IL-10 [4]: 48.89 pg/mg; Interferon (IFN)-γ [4]: 23.18 pg/mg; TNF-a/IL-10 [4]: 0.26; TNF-α [4]: 13.37 pg/mg
